Drawing on publication PMC4550478, “Metronidazole-triazole conjugates: Activity against Clostridium difficile and parasites” (European Journal of Medicinal Chemistry, 2015), this text covers MIC and EC50 for six compounds.

Assay [1] deals with H. pylori clinical isolate 13/61. Kind of assay: MIC agar dilution, H. pylori 13/61. The following applies: Helicobacter pylori, MtzR clinical isolate. In kind it is cell-based. As for the experimental part: (§1) All compounds were tested for activity against a set of anaerobic C. difficile bacteria (630 ATCC BAA-1382, NAP1/027 M7404, NAP1/027 ATCC BAA-1803, VPI10463 ATCC 43255, CD26A54_S and CD26A54_R) and representative ESKAPE pathogens S. aureus (MRSA ATCC 43300), E. coli (ATCC 25922), K. pneumoniae (ATCC 700603), A. baumannii (ATCC 19606) and P. aeruginosa (ATCC 27853) using a standard broth microdilution assay. Selected compounds were tested for activity against H. pylori strains (26695, and clinical isolates MtzS 13/25, MtzR 98/285 and MtzR 13/61) using agar plate dilution, and for antimicrobial activity against […] Gram-positive bacterial strains: Enterococcus faecalis (VanA clinical isolate), Enterococcus faecium (MDR VanA ATCC 51559), Streptococcus pneumoniae (MDR ATCC 700677), S. aureus (MRSA ATCC 43300, MRSA clinical isolate, MRSA/DRSA clinical isolate, GISA NARSA NRS 1, GISA NARSA NRS 17, VRSA NARSA VRS1, VRSA NARSA VRS4 and VRSA NARSA VRS10) using broth microdilution. C. difficile strains were grown at 37 °C in a COY anaerobic chamber (5% H2, 10% CO2, 85% N2). H. pylori strains were grown at 37 °C under a microaerobic atmosphere (5% O2, 10% CO2). All facultative anaerobic bacteria were grown at 37 °C with normal atmospheric oxygen levels. All experiments were performed in duplicate with metronidazole, vancomycin, linezolid or colistin as positive controls for relevant strains (see Table 1). Positive growth control of bacteria and DMSO as well as a negative control of only media were included for every plate. Full assay details are provided in the supplementary information.
(§2) Helicobacter pylori strains, with a range of resistance levels to metronidazole (256 µg/ml, 64 µg/ml, 24 µg/ml, 2 µg/ml, and 0.04 µg/ml), were selected and obtained from Helicobacter Research Laboratory, University of Western Australia. The resistance strength to metronidazole was recorded according to eTest (bioMérieux). H. pylori strain 26695 was used as the control. H. pylori was maintained on the non-selective Columbia blood agar plates (CBA) (Columbia agar base Oxoid) with 5% horse blood and incubated at 37 °C and 10% CO2 for 48 hrs. […] Each of the H. pylori strains were harvested, OD600 calibrated to 0.3, and spotted in triplicate on CBA pre-mixed with the compound. The lowest concentration of antibiotic showing no growth was read as the MIC. The experiment was performed in duplicate.
On the technique in general: In agar dilution, organisms are placed on agar that contains the substance at set levels.

Assay [2] concerns G. lamblia BRIS/83/HEPU/106 (106). On the set-up: method as in earlier work. Particulars: MtzS, crude Mtz-triazoles (>85% purity), ref 15 (Miyamoto et al.); read-out: EC50 G. lamblia 106, Lit.; cited from earlier work.
Assay [3] deals with H. pylori clinical isolate 13/25. Kind of assay: MIC agar dilution, H. pylori 13/25. The format is cell-based. The following applies: Helicobacter pylori, MtzS clinical isolate. The method, then:
as §1, §2

The subject of assay [4] is G. lamblia BRIS/87/HEPU/713 (713). On the set-up: method as in earlier work. Particulars: MtzS, crude Mtz-triazoles (>85% purity), ref 15 (Miyamoto et al.); read-out: EC50 G. lamblia 713, Lit.; cited from earlier work.
Assay [5] concerns C. difficile NAP1/027 ATCC BAA-1803. Kind of assay: MIC broth microdilution, C. difficile NAP1/027 ATCC BAA-1803. The format is cell-based, Clostridium difficile. Particulars: Clostridioides difficile. As for the experimental part: as §1
C. difficile ATCC BAA-1382, ATCC BAA-1803, ATCC 43255 and M7404 heat shocked spore stocks (10 µL) were transferred into the anaerobic chamber and 10 µL streaked onto pre-reduced (at least 2.5 hr in anaerobic chamber) BHIS agar plates supplemented with 0.1% w/v sodium taurocholate (BHIS(TA)). Plates were incubated for 24 hours prior to assay to give colonies of size 1-3mm diameter with characteristic uneven borders.
The minimum inhibition concentration was determined according to the CLSI Methods with modifications in broth and inoculum for C. difficile according to Babakhani et al.^7,8 Briefly, compounds were prepared to 20X final concentration in 100% water, 60% DMSO and 40% water or 60% DMSO and 40% media. The compounds along with standard antibiotics were serially diluted two-fold across the wells of 96-well non-binding surface plates (Non binding surface, Corning). The plates were placed in the anaerobic chamber overnight to reduce. C. difficile bacteria from BHIS(TA) agar plates were cultured anaerobically in BHIS at 37 °C overnight. A sample of culture was then diluted 40-fold in BHIS broth and incubated at 37 °C for approximately 4.5 hrs. The resultant mid-log phase culture (OD600= 0.5-0.6) was diluted to the final concentration of ~1×10^6 CFU/mL, then 50 µL was added to each well of the compound-containing 96-well plates. This gave final cell concentration of 5×10^5 CFU/mL, final volume 100 µL and 3% maximum DMSO concentration. Compound concentration was typically from 64 to 0.03 µg/mL. An antibiotic standard was included on each 96 well plate as well as a positive growth control (no compound) and sterility control (no bacteria). […] MICs were the lowest concentration showing no visible growth.
For orientation: Broth dilution looks for growth in wells or tubes with falling amounts of substance.

For another assay, the system named is G. lamblia 713-M3 (713M). On the set-up: method as in earlier work. The following applies: MtzR, crude Mtz-triazoles (>85% purity), ref 15 (Miyamoto et al.); read-out: EC50 G. lamblia 713M, Lit.; cited from earlier work.
For the next assay, the system named is H. pylori 26695. Kind of assay: MIC agar dilution, H. pylori 26695. The format is cell-based. The following applies: Helicobacter pylori, MtzS, microaerobic. As for the experimental part: as §1, §2
Setting [6] is: ATCC 43255 / ATCC BAA-1803, NAP1/027 (footnote c: ATCC 43255), MtzS, 24 h, median of at least n = 4, read-out: MIC C. difficile NAP1/027 (footnote c).
Where [7] appears, read: ATCCBAA1803, 24 hr incubation, read-out: MIC C. difficile NAP1/027 ATCC BAA-1803 24 hr.
Where [8] appears, read: ATCCBAA1803, 48 hr incubation, read-out: MIC C. difficile NAP1/027 ATCC BAA-1803 48 hr.

Structures are written as SMILES. ≈ marks a conversion by molar mass, not a printed value. Where two headings read alike, the source gives them in different places.

Broadly, the EC50 is the midpoint of the concentration-response curve. Consider `Cc1ncc([N+](=O)[O-])n1CCO` [Compound 1, metronidazole], for which the MIC is 32 to 64 µg/mL (≈ 187 to 374 µM) in assay [1]; 4 to 8 µg/mL (≈ 23.4 to 46.7 µM) in assay [3]; 0.5 µg/mL (≈ 2.92 µM) in assay [5] (setting [6]); 0.5 µg/mL (≈ 2.92 µM) in assay [5] (setting [7]); 0.5 µg/mL (≈ 2.92 µM) in assay [5] (setting [8]); 8 µg/mL (≈ 46.7 µM) with H. pylori 26695. Also, the figures for the EC50 (in assay [2]; in assay [4]; with G. lamblia 713-M3 (713M)) were 3600 nM, 2000 nM and 50000 nM, respectively.

For `COC(=O)c1cn(CCn2c([N+](=O)[O-])cnc2C)nn1` [Compound 4f, 1-(2-(2-methyl-5-nitro-1H-imidazol-1-yl)ethyl)-4-(methoxycarbonyl)-1H-1,2,3-triazole], the MIC in assay [3] is 32 to 64 µg/mL (≈ 114 to 228 µM); in assay [5] (setting [6]), 1 µg/mL (≈ 3.57 µM); in assay [5] (setting [7]) it was 1 µg/mL (≈ 3.57 µM); in assay [5] (setting [8]), 1 µg/mL (≈ 3.57 µM); against H. pylori 26695, 32 to 64 µg/mL (≈ 114 to 228 µM).

For `Cc1ncc([N+](=O)[O-])n1CCn1cc(Cn2cccn2)nn1` [Compound 4g, 1-(2-(2-methyl-5-nitro-1H-imidazol-1-yl)ethyl)-4-((1H-pyrazol-1-yl)methyl)-1H-1,2,3-triazole], the MIC is 16 to 32 µg/mL (≈ 52.9 to 106 µM) in assay [1]; 2 µg/mL (≈ 6.62 µM) in assay [3]; 1 µg/mL (≈ 3.31 µM) in assay [5] (setting [6]); 1 µg/mL (≈ 3.31 µM) in assay [5] (setting [7]); 1 to 2 µg/mL (≈ 3.31 to 6.62 µM) in assay [5] (setting [8]); 2 to 4 µg/mL (≈ 6.62 to 13.2 µM) in the assay on H. pylori 26695.

`Cc1ncc([N+](=O)[O-])n1CCn1cc(-c2ccccn2)nn1` [Compound 4h, 1-(2-(2-methyl-5-nitro-1H-imidazol-1-yl)ethyl)-4-(2-pyridinyl)-1H-1,2,3-triazole.xTFA]: the MIC in assay [1] is 16 µg/mL; in assay [3] it was 1 µg/mL; in assay [5] (setting [6]) it was 0.5 µg/mL; in assay [5] (setting [7]) it was 0.5 µg/mL; in assay [5] (setting [8]) it was 0.5 to 1 µg/mL; with H. pylori 26695 it was 2 µg/mL. Moreover, the half-maximal effective concentration (EC50) in assay [2] is 560 nM; in assay [4], 350 nM; in the assay on G. lamblia 713-M3 (713M), 14000 nM.

`Cc1ncc([N+](=O)[O-])n1CCn1cc(CN(C)Cc2ccccc2)nn1` [Compound 4m, 1-(2-(2-methyl-5-nitro-1H-imidazol-1-yl)ethyl)-4-(N-benzyl, N-methylaminomethyl)-1H-1,2,3-triazole]: the MIC in assay [1] is 16 µg/mL (≈ 45 µM); in assay [3], 2 µg/mL (≈ 5.63 µM); in assay [5] (setting [6]) it was 1 µg/mL (≈ 2.81 µM); in assay [5] (setting [7]), 2 µg/mL (≈ 5.63 µM); in assay [5] (setting [8]) it was 1 to 2 µg/mL (≈ 2.81 to 5.63 µM); in the assay on H. pylori 26695 it was 4 µg/mL (≈ 11.3 µM). The EC50 was 300 nM in assay [2], 910 nM in assay [4] and 9300 nM in the assay with G. lamblia 713-M3 (713M).

As for `Cc1ncc([N+](=O)[O-])n1CCn1cc(C(=O)O)nn1` [Compound 4s, 1-(2-(2-methyl-5-nitro-1H-imidazol-1-yl)ethyl)-4-(carboxy)-1H-1,2,3-triazole], the MIC in assay [1] was greater than 64 µg/mL; in assay [3] it was greater than 64 µg/mL; in assay [5] (setting [6]), 64 µg/mL (≈ 240 µM); in assay [5] (setting [7]), 64 µg/mL (≈ 240 µM); in assay [5] (setting [8]), 64 µg/mL (≈ 240 µM); in the assay on H. pylori 26695, greater than 64 µg/mL.
